Assay results from patent US20050279350A1, “Methods and apparatus for relieving headaches, rhinitis and other common ailments” (priority 1999, published 2005).
“And” between values parts separate entries of the source, which are not always exact repeats. Equal values may be shown once. Read-outs that look alike come from different tables or passages of the source. Marks after values point to notes of the source that are not given here.

Tested on: human subjects with migraine and tension-type headaches, jaw pain
Type: in vivo
Details: for Est. Rate / Est. Total Dose / Number of Doses / Single Dose Duration / Total Dose / Total Treatment Time: self-selected effective dose; for 24-hr. Recur Rate / After Effects / Symptom Free, Minutes Post-Treatment / Symptom, Relief, Minutes Post-Treatment: moderate; for range of average dose duration / range of volume of gas: across severities
Excerpt: The test device was a hand-held, multi-dose, disposable, dispenser that was approximately 3 to 4 inches long and 6/8 to ⅞ inches in diameter constructed as described above. The device consisted of a plastic twist-top flow regulator mounted on top of a pressurized steel cartridge containing liquid carbon dioxide. The tip of the flow regulator has a nosepiece that is the optimal size and configuration to place against and seal off a nostril for administration of the gas. In a number of subjects, the effective nasal and oral carbon dioxide flow rates, and maximum tolerable nasal and oral flow rates, were measured using a laboratory apparatus. This apparatus consisted of a flow regulator connected via tubing to a flow meter and a large tank of carbon dioxide. These flow data were used, together with the number of seconds gas was administered during therapy, to calculate the estimated dose of gas in milliliters.
Of the total of 15 subjects included in the analysis, 11 used the treatment for 35 headaches and 9 subjects used it for 9 allergy attacks. […] subjects treated both headache and allergy but on different days. The subjects included adults, elderly, and children of both sexes in good general health, having mild, moderate, and severe headaches or having allergies to plant, animal, or airborne allergens. The device was used to treat migraine and tension-type headaches, jaw pain, and allergies (allergic rhinitis, with symptoms that included sinus congestion, sneezing, and itchy throat and eyes). There was no limitation on the duration of symptoms before treatment with the device. Subjects with no prior use of the device and those who have used it (to treat allergy symptoms) previously were included.
Carbon dioxide (100%) was administered nasally by the subject for a few seconds via a nostril to fill the nasal passages while holding their breath, or taking breaths of room air occasionally if the dose was lengthy. The gas exited the other nostril. Such nasal administration is similar to presently marketed nasal inhalers except that the administered gas was not inhaled. […] Subjects took as many doses as they needed for relief. It is important to note that there were no number of doses, duration of dose, time between doses, or gas flow rate specified for the user. Subjects chose their own regimen for symptom relief. Similarly, in medical practice today, gas therapy is a “titrate to effect” therapy without a specified dosage.
The International Headache Society (IHS) divides headache intensity into three categories: mild, moderate, and severe. The rating of the intensity level depends on the extent to which the headache interferes with the ability to function. […] The IHS uses headache relief at two hours as its primary outcome measure for present-day headache drug studies. Since therapy of the present invention acts much faster than present-day drugs, the primary outcome measure selected for this analysis was headache relief at 30 minutes. Each of the headache outcome measures used for this analysis is as follows: • Headache relief efficacy at 1, 5, 15, and 30 minutes post-treatment—headache relief efficacy is obtained when a pre-treatment headache severity of mild, moderate, or severe severity is improved to a post-treatment severity of none, mild, or moderate respectively. • Headache free efficacy at 1, 5, 15, and 30 minutes post-treatment—headache free efficacy is obtained when a pre-treatment headache of mild, moderate, or severe severity is improved to a post-treatment severity of none. • Headache recurrence within 24 hours post-treatment—recurrence within 24 hours is defined as no or mild headache severity after treatment that then worsened to moderate or severe headache severity within 24 hours after treatment with no use of rescue medication before the worsening. • Safety parameter—safety is defined as no adverse after-effects of treatment.

[1] = Headache-All, mild, severe, 1 min post-treatment
[2] = Headache-All, mild, severe, 5 min post-treatment
[3] = Headache-All, mild, severe, 15 min post-treatment
[4] = Headache-All, mild, severe, 30 min post-treatment
[5] = Headache-All, severe - IHS criteria
[6] = Headache-All, severe - IHS criteria, 1 min post-treatment
[7] = Headache-All, severe - IHS criteria, 5 min post-treatment
[8] = Headache-All, severe - IHS criteria, 15 min post-treatment
[9] = Headache-All, severe - IHS criteria, 30 min post-treatment
[10] = Migraine, mild, severe, 1 min post-treatment
[11] = Migraine, mild, severe, 5 min post-treatment
[12] = Migraine, mild, severe, 15 min post-treatment
[13] = Migraine, mild, severe, 30 min post-treatment
[14] = Migraine, severe - IHS criteria
[15] = Migraine, severe - IHS criteria, 1 min post-treatment
[16] = Migraine, severe - IHS criteria, 5 min post-treatment
[17] = Migraine, severe - IHS criteria, 15 min post-treatment
[18] = Migraine, severe - IHS criteria, 30 min post-treatment
[19] = Tension, mild, severe, 1 min post-treatment
[20] = Tension, mild, severe, 5 min post-treatment
[21] = Tension, mild, severe, 15 min post-treatment
[22] = Tension, mild, severe, 30 min post-treatment
[23] = Tension, severe - IHS criteria, 1 min post-treatment
[24] = Tension, severe - IHS criteria, 5 min post-treatment
[25] = Tension, severe - IHS criteria, 15 min post-treatment
[26] = Tension, severe - IHS criteria, 30 min post-treatment

O=C=O [carbon dioxide]
headache recurrence 24 hours post-treatment (35 headaches): no instances of headache recurrence | Est. Rate (Headache-All): 4 mL/s | Est. Total Dose (Headache-All): 124 mL | Number of Doses (Headache-All): 2 # | Single Dose Duration (Headache-All): 15 s | Total Dose (Headache-All): 32 s | Total Treatment Time (Headache-All): 7 min | 24-hr. Recur Rate (Headache-All, mild, severe): 0% | After Effects (Headache-All, mild, severe): 0% | Symptom Free, Minutes Post-Treatment [1]: 31% | Symptom, Relief, Minutes Post-Treatment [1]: 31% | Symptom Free, Minutes Post-Treatment [2]: 60% | Symptom, Relief, Minutes Post-Treatment [2]: 63% | Symptom Free, Minutes Post-Treatment [3]: 74% | Symptom, Relief, Minutes Post-Treatment [3]: 86% | Symptom Free, Minutes Post-Treatment [4]: 80% | Symptom, Relief, Minutes Post-Treatment [4]: 94% | 24-hr. Recur Rate [5]: 0% | After Effects [5]: 0% | Symptom Free, Minutes Post-Treatment [6]: 16% | Symptom, Relief, Minutes Post-Treatment [6]: 16% | Symptom Free, Minutes Post-Treatment [7]: 52% | Symptom, Relief, Minutes Post-Treatment [7]: 52% | Symptom Free, Minutes Post-Treatment [8]: 72% | Symptom, Relief, Minutes Post-Treatment [8]: 72% | Symptom Free, Minutes Post-Treatment [9]: 80% | Symptom, Relief, Minutes Post-Treatment [9]: 84% | Est. Rate (Migraine-All): 3 mL/s | Est. Total Dose (Migraine-All): 158 mL | Number of Doses (Migraine-All): 2 # | Single Dose Duration (Migraine-All): 29 s | Total Dose (Migraine-All): 57 s | Total Treatment Time (Migraine-All): 15 min | Est. Rate (Migraine-Mild): 3 mL/s | Est. Total Dose (Migraine-Mild): 82 mL | Number of Doses (Migraine-Mild): 1 # | Single Dose Duration (Migraine-Mild): 23 s | Total Dose (Migraine-Mild): 30 s | Total Treatment Time (Migraine-Mild): 1 min | Est. Rate (Migraine-Severe): 3 mL/s | Est. Total Dose (Migraine-Severe): 233 mL | Number of Doses (Migraine-Severe): 2 # | Single Dose Duration (Migraine-Severe): 35 s | Total Dose (Migraine-Severe): 83 s | Total Treatment Time (Migraine-Severe): 28 min | 24-hr. Recur Rate (Migraine, mild, severe): 0% | After Effects (Migraine, mild, severe): 0% | Symptom Free, Minutes Post-Treatment [10]: 60% | Symptom, Relief, Minutes Post-Treatment [10]: 60% | Symptom Free, Minutes Post-Treatment [11]: 60% | Symptom, Relief, Minutes Post-Treatment [11]: 60% | Symptom Free, Minutes Post-Treatment [12]: 60% | Symptom, Relief, Minutes Post-Treatment [12]: 60% | Symptom Free, Minutes Post-Treatment [13]: 90% | Symptom, Relief, Minutes Post-Treatment [13]: 90% | 24-hr. Recur Rate [14]: 0% | After Effects [14]: 0% | Symptom Free, Minutes Post-Treatment [15]: 25% | Symptom, Relief, Minutes Post-Treatment [15]: 25% | Symptom Free, Minutes Post-Treatment [16]: 25% | Symptom, Relief, Minutes Post-Treatment [16]: 25% | Symptom Free, Minutes Post-Treatment [17]: 25% | Symptom, Relief, Minutes Post-Treatment [17]: 25% | Symptom Free, Minutes Post-Treatment [18]: 75% | Symptom, Relief, Minutes Post-Treatment [18]: 100% | Est. Rate (Tension-All): 4 mL/s | Est. Total Dose (Tension-All): 122 mL | Number of Doses (Tension-All): 3 # | Single Dose Duration (Tension-All): 8 s | Total Dose (Tension-All): 24 s | Total Treatment Time (Tension-All): 6 min | Est. Rate (Tension-Mild): 3 mL/s | Est. Total Dose (Tension-Mild): 28 mL | Number of Doses (Tension-Mild): 2 # | Single Dose Duration (Tension-Mild): 3 s | Total Dose (Tension-Mild): 6 s | Total Treatment Time (Tension-Mild): 2 min | Est. Rate (Tension-Moderate): 4 mL/s | Est. Total Dose (Tension-Moderate): 50 mL | Number of Doses (Tension-Moderate): 2 # | Single Dose Duration (Tension-Moderate): 6 s | Total Dose (Tension-Moderate): 11 s | Total Treatment Time (Tension-Moderate): 4 min | Est. Rate (Tension-Severe): 5 mL/s | Est. Total Dose (Tension-Severe): 288 mL | Number of Doses (Tension-Severe): 4 # | Single Dose Duration (Tension-Severe): 15 s | Total Dose (Tension-Severe): 56 s | Total Treatment Time (Tension-Severe): 11 min | 24-hr. Recur Rate (Tension, mild, severe): 0% | After Effects (Tension, mild, severe): 0% | Symptom Free, Minutes Post-Treatment [19]: 20% | Symptom, Relief, Minutes Post-Treatment [19]: 20% | Symptom Free, Minutes Post-Treatment [20]: 64% | Symptom, Relief, Minutes Post-Treatment [20]: 64% | Symptom Free, Minutes Post-Treatment [21]: 80% | Symptom, Relief, Minutes Post-Treatment [21]: 96% | Symptom Free, Minutes Post-Treatment [22]: 80% | Symptom, Relief, Minutes Post-Treatment [22]: 96% | 24-hr. Recur Rate (Tension, severe - IHS criteria): 0% | After Effects (Tension, severe - IHS criteria): 0% | Symptom Free, Minutes Post-Treatment [23]: 14% | Symptom, Relief, Minutes Post-Treatment [23]: 14% | Symptom Free, Minutes Post-Treatment [24]: 55% | Symptom, Relief, Minutes Post-Treatment [24]: 55% | Symptom Free, Minutes Post-Treatment [25]: 77% | Symptom, Relief, Minutes Post-Treatment [25]: 77% | Symptom Free, Minutes Post-Treatment [26]: 80% and 77% | Symptom, Relief, Minutes Post-Treatment [26]: 77% | headache outcome in an individual subject (all subsequent mild and severe migraines, two to three doses for 25 sec each=120 ml): completely eliminate | dose dependence of the treatment (analysis of the headache and allergy therapy data (Table IV)): dose dependent | headache outcome in an individual subject (at onset of a migraine, doses twice for 20 to 25 seconds): completely aborts the migraine and it does not recur | adverse after effects of treatment (headache subjects): no subjects reported any adverse after effects | onset of symptom relief (headache, while administering the first dose): immediate onset of symptom relief within seconds | efficacy (migraine and tension-type headache, occurring in seconds to minutes): 80-94% | range of average dose duration (migraine headaches): 30 to 83 s | range of volume of gas (migraine headaches): 82 to 233 mL | headache outcome in an individual subject (mild migraine, first use of device, one dose for 30 sec=60 ml): unable to improve | headache outcome in an individual subject (moderate tension headache, one dose of 1 sec=2 ml): no success | headache outcome in an individual subject (severe jaw/tooth ache, three doses of 45 sec each=675 ml): completely eliminate | headache outcome in an individual subject (severe tension headache, three doses of 15 sec each=225 ml): completely eliminate | headache outcome in an individual subject (severe tension headaches, three occasions, six doses of 8 sec each=240 ml): only moderate success | range of average dose duration (tension-type headaches): 6 to 56 s | range of volume of gas (tension-type headaches): 28 to 288 mL
